{
  "source": "patent US9265787B2",
  "about": "“Combined inhibition of the vitamin D receptor and DNA replication in the treatment of cancer” (Institute for Cancer Research, priority 2011, dated 2016)",
  "format_in_all_cases": "cell-based",
  "key": {"BXPC3 cells [1]": {"test_system": "BXPC3 cells", "test": "Clonogenic assay with VDR antagonist TEI-9647 and gemcitabine", "method": "Note sensitization at 2 μM of TEI-9647. The average of 3 independent experiments is shown.\n(§1) TEI-9647 alone killed cells, consistent with reduced clonogenic survival by VDR siRNA alone. Clonogenic assays were performed using several different doses of the inhibitor compound to compare clonogenic survival to assays described above using VDR siRNAs and shRNAs. The clonogenic assays were performed as described above. The TEI-9647 compound was added prior to gemcitabine addition, consistent with the timing of the siRNA treatments described above. Cells were treated with inhibitor for 48 hours followed by gemcitabine treatment for 48 hours and allowed to form colonies for 10-12 days. Survival was then quantified by staining and destaining of subsequent colonies with crystal violet and reading the resultant destain at wavelength 595 nm."}, "Panc1 cells [2]": {"test_system": "Panc1 cells", "test": "Clonogenic assay with VDR antagonist TEI-9647 and gemcitabine", "settings": "data not shown", "method": "as §1"}, "Panc1:gfpH2B cells": {"test_system": "Panc1:gfpH2B cells", "test": "Time-lapse videomicroscopy of cell fates with siRNAs/drugs and gemcitabine", "excerpt": "FIGS. 5A-5C show time lapse videomicroscopy tracking the fates of Panc1:gfpH2B cells treated with various combinations of siRNAs and drugs.\nWhite arrows show mitotic cells in Chk1 depleted cells. Other rounded cells are apoptotic.\nThe fate of Panc1:gfpH2B cells treated with various combinations of siRNA and gemcitabine was tracked with time-lapse videomicroscopy (FIG. 5A). […] Cells were transfected with indicated siRNAs, and synchronized at the G1/S boundary. Time-lapse was started upon release from the G1/S block and continued for the next 48 hours. Select frames from the movies (0, 12, 24 and 48 hours) are shown.\nA comparison of cells treated with gemcitabine in the presence and absence of UCN01, an inhibitor of the Chk1 DNA damage response kinase was carried out (FIG. 5A).\nThe percentage of cell death was quantified (FIG. 5C).\nThe mechanism of chemosensitization by inhibiting VDR was investigated, and it was determined that this mechanism is different from overriding the DNA damage checkpoint pathway through Chk1 inhibition (FIG. 6A). […] Chk1 was depleted by using siRNAs targeted to the Chk1 transcript from the Dharmacon smartPOOL siRNA library. The siRNAs included the sequence […] (SEQ ID NO:8), […] (SEQ ID NO:9), […] (SEQ ID NO:10), and […] (SEQ ID NO:11).\nLoss of VDR promotes apoptosis of gemcitabine-treated cells through a different pathway than that which is used after Chk1 inhibition. […]"}, "Panc1 cells [3]": {"test_system": "Panc1 cells", "test": "Immunofluorescence staining for DNA damage response proteins", "settings": "gemcitabine-treated compared to vehicle treated cells", "source_text": "Immunofluorescence staining for DNA damage response proteins, TAO1, 53BP1, and γ-H2AX of gemcitabine treated Panc1 cells transfected with control or VDR siRNA."}, "Panc1 cells [4]": {"test_system": "Panc1 cells", "test": "Effect of the sublethal screening dose of gemcitabine (phospho-H2AX foci, cell cycle arrest)", "settings": "sublethal dose (IC20)"}, "[5]": {"test_system": "BXPC3 cells stably expressing gfpH2B", "test": "Time-lapse microscopy of BXPC3 cells stably expressing gfpH2B (preliminary experiments)", "settings": "S phase by FACS", "excerpt": "VDR is known to induce transcription of the Cdk inhibitor, p21, and this is one of the reasons used to explain the anti-proliferative activity of vitamin D. As p21 is also activated by DNA damage, it is possible that VDR contributes to the cell cycle checkpoint arrest induced by gemcitabine. This will be directly tested by time-lapse microscopy of synchronized cells after depletion of VDR and treatment with gemcitabine."}, "BXPC3 cells [6]": {"test_system": "BXPC3 cells", "test": "Clonogenic survival after siRNA transfection and 18 h gemcitabine", "settings": "VDR siRNA-transfected BXPC3 cells, gemcitabine 18 hours, colonies after eight days", "method": "(§2) Clonogenic survival of BXPC3 cells transfected with indicated siRNAs and treated with drug or vehicle. Plk1 siRNA is positive control for killing. […] Panc 1 cells transfected with VDR siRNA are also included.\n(§3) Cells were transfected with siRNA, treated with gemcitabine for 18 hours, then seeded. Surviving colonies were quantitated eight days later."}, "Panc1 cells [7]": {"test_system": "Panc1 cells", "test": "Clonogenic survival after siRNA transfection and 18 h gemcitabine", "settings": "VDR siRNA-transfected Panc 1 cells, gemcitabine 18 hours, colonies after eight days", "method": "as §2, §3"}, "BXPC3shVDR cells": {"test_system": "BXPC3shVDR cells", "test": "Drug survival of BXPC3 cells stably depleted of VDR (rescue experiments)"}, "BXPC3 cells [8]": {"test_system": "BXPC3 cells", "test": "CellTiter-Glo viability assay with VDR short hairpin RNA and gemcitabine"}, "Panc1 cells [9]": {"test_system": "Panc1 cells", "test": "CellTiter-Glo viability assay with VDR short hairpin RNA and gemcitabine"}},
  "data": [
    {"molecule": "C=C1C[C@H](C[C@@H](C)[C@H]2CC[C@H]3/C(=C/C=C4/C[C@@H](O)C[C@H](O)C4=C)CCC[C@]23C)OC1=O", "note": "[TEI-9647]", "values": [
      {"measurement": "sensitization to gemcitabine (clonogenic survival)", "setting": "BXPC3 cells [1]; TEI-9647 added prior to gemcitabine", "value": "sensitize both BXPC3 and Panc1 cells to gemcitabine"},
      {"measurement": "TEI-9647 concentration at which sensitization is noted", "setting": "BXPC3 cells [1]; with gemcitabine, average of 3 independent experiments", "value": 2, "unit": "µM"},
      {"measurement": "effect of TEI-9647 alone on clonogenic survival", "setting": "BXPC3 cells [1]; without gemcitabine", "value": "killed cells"},
      {"measurement": "sensitization to gemcitabine (clonogenic survival)", "setting": "Panc1 cells [2]", "value": "sensitize both BXPC3 and Panc1 cells to gemcitabine"}
    ]},
    {"molecule": "CN[C@@H]1C[C@H]2O[C@@](C)([C@@H]1OC)n1c3ccccc3c3c4c(c5c6ccccc6n2c5c31)C(=O)N[C@@H]4O", "note": "[UCN01]", "values": [
      {"measurement": "fate of gemcitabine-treated cells (mitotic entry, phase of death)", "setting": "Panc1:gfpH2B cells; 48 hour time-lapse after release from G1/S block", "value": "promoted cells to first enter mitosis (arrows) which then caused cell death"},
      {"measurement": "cell number at 48 hour versus 0 hour", "setting": "Panc1:gfpH2B cells; gemcitabine-treated cells with UCN01, phase contrast images", "value": "reduced cell number"}
    ]},
    {"molecule": "Nc1ccn([C@@H]2O[C@H](CO)[C@@H](O)C2(F)F)c(=O)n1", "note": "[gemcitabine, Gemcitabine]", "values": [
      {"measurement": "phospho-H2AX and 53BP1 staining in nuclei", "setting": "Panc1 cells [3]", "value": "increased"},
      {"measurement": "DNA damage and cell cycle arrest at the screening dose", "setting": "Panc1 cells [4]", "value": "sufficient to induce DNA damage"},
      {"measurement": "duration of arrest in interphase after gemcitabine treatment", "setting": "[5]", "value": "up to 48 hours"},
      {"measurement": "further reduction of survival by gemcitabine", "setting": "BXPC3 cells [6]", "value": "> 85", "unit": "%"},
      {"measurement": "further reduction of survival by gemcitabine", "setting": "Panc1 cells [7]", "value": "> 85", "unit": "%"},
      {"measurement": "survival of BXPC3shVDR cells carrying the C288G VDR mutant", "setting": "BXPC3shVDR cells; 50 nM, compared to the same cells rescued by wild type VDR", "value": "killed"}
    ]},
    {"molecule": "CC(=O)O[C@H]1C(=O)[C@@]2(C)[C@H]([C@H](OC(=O)c3ccccc3)[C@]3(O)C[C@H](OC(=O)[C@H](O)[C@@H](NC(=O)c4ccccc4)c4ccccc4)C(C)=C1C3(C)C)[C@]1(OC(C)=O)CO[C@@H]1C[C@@H]2O", "note": "[taxol]", "values": [
      {"measurement": "effect of VDR status on killing by taxol", "setting": "BXPC3shVDR cells; two concentrations of taxol, BXPC3 parental, shVDR and rescued cells", "value": "did not affect killing"}
    ]},
    {"molecule": "VDR shRNA: VDR short hairpin RNA (clone ID TRCN000019504), sequence CGAAGUGUUUGGCAAUGAGAU (SEQ ID NO: 7) (listed as Homo sapiens)", "values": [
      {"measurement": "sensitization to killing by gemcitabine (viability)", "setting": "BXPC3 cells [8]", "value": "sensitized both cell lines to killing by gemcitabine"},
      {"measurement": "sensitization to killing by gemcitabine (viability)", "setting": "Panc1 cells [9]", "value": "sensitized both cell lines to killing by gemcitabine"}
    ]}
  ]
}
